Experimental findings from the OligoGym collection are described below.

HELM strings list units from the 5' end as sugar, base in round brackets, then linkage (d deoxyribose, r ribose, m 2'-O-methyl, p phosphodiester). Strings are as the collection lists them; they lack the last nucleoside at the 3' end of the tested compound. [moe] = 2'-O-(2-methoxyethyl) (MOE); [sp] = phosphorothioate linkage; [m5C] = 5-methylcytosine

This series has as its target UBE3A-ATS. Kind of series: mouse, dose not given. Particulars: ASO.
“RNA1{[moe](T)[sp].[moe](G)p.[moe]([m5C])p.[moe](A)p.d(T)[sp].d(A)[sp].d([m5C])[sp].d([m5C])[sp].d([m5C])[sp].d(A)[sp].d(G)[sp].d(G)[sp].d(G)[sp].d(T)[sp].[moe](A)p.[moe](G)p.[moe](G)p.[moe](A)[sp].[moe](T)}$$$$ (last 3' nucleoside missing)” registered a 3 h FOB score of 1 score 0-7.

Substance “RNA1{[moe](T)[sp].[moe]([m5C])p.[moe](A)p.[moe](T)p.[moe]([m5C])p.[moe](T)p.d([m5C])[sp].d(G)[sp].d(G)[sp].d(G)[sp].d(T)[sp].d(A)[sp].d(T)[sp].d(A)[sp].d(T)[sp].d(A)[sp].[moe](A)p.[moe](A)[sp].[moe](T)}$$$$ (last 3' nucleoside missing)” had a 3 h FOB score of 2 score 0-7.

In the case of “RNA1{[moe](G)[sp].[moe](T)p.[moe](G)p.[moe](T)p.[moe](G)p.d(T)[sp].d(G)[sp].d([m5C])[sp].d(A)[sp].d(A)[sp].d(T)[sp].d(A)[sp].d(G)[sp].d([m5C])[sp].d([m5C])[sp].[moe](T)p.[moe](A)p.[moe](A)[sp].[moe](A)}$$$$ (last 3' nucleoside missing)”, the 3 h FOB score was found to be 3.5 score 0-7.

Consider “RNA1{[moe](G)[sp].[moe](G)p.[moe]([m5C])p.[moe](A)p.[moe](A)p.d(G)[sp].d([m5C])[sp].d(A)[sp].d(A)[sp].d([m5C])[sp].d(T)[sp].d(A)[sp].d(T)[sp].d(G)[sp].d(G)[sp].[moe](G)p.[moe](T)p.[moe](G)[sp].[moe](G)}$$$$ (last 3' nucleoside missing)”, for which the 3 h FOB score turned out to be 6.2 score 0-7.

The substance “RNA1{[moe](G)[sp].[moe](A)p.[moe](T)p.[moe]([m5C])p.[moe](A)p.d([m5C])[sp].d(A)[sp].d(T)[sp].d(T)[sp].d(A)[sp].d([m5C])[sp].d([m5C])[sp].d([m5C])[sp].d(A)[sp].d(T)[sp].[moe]([m5C])p.[moe]([m5C])p.[moe](G)[sp].[moe](T)}$$$$ (last 3' nucleoside missing)” came in with a 3 h FOB score of 0 score 0-7.

In turn, “RNA1{[moe](T)[sp].[moe](T)p.[moe](T)p.[moe](T)p.[moe](A)p.d(T)[sp].d(T)[sp].d(G)[sp].d(G)[sp].d(T)[sp].d([m5C])[sp].d(A)[sp].d(T)[sp].d([m5C])[sp].d(T)[sp].[moe]([m5C])p.[moe](G)p.[moe](G)[sp].[moe](G)}$$$$ (last 3' nucleoside missing)” gave a 3 h FOB score of 2.3 score 0-7.

“RNA1{[moe]([m5C])[sp].[moe](A)p.[moe](T)p.[moe](A)[sp].d([m5C])[sp].d([m5C])[sp].d([m5C])[sp].d(A)[sp].d(G)[sp].d(G)[sp].d(G)[sp].d(T)[sp].[moe](A)p.[moe](G)p.[moe](G)p.[moe](A)[sp].[moe](T)}$$$$ (last 3' nucleoside missing)” displayed a 3 h FOB score of 1 score 0-7.

As to “RNA1{[moe](T)[sp].[moe](G)p.[moe](A)p.[moe](T)p.[moe](A)p.d(G)[sp].d(A)[sp].d(T)[sp].d(A)[sp].d([m5C])[sp].d(T)[sp].d(T)[sp].d(G)[sp].d(T)[sp].d(A)[sp].[moe](T)p.[moe](T)p.[moe](A)[sp].[moe](G)}$$$$ (last 3' nucleoside missing)”, the 3 h FOB score came to 3.8 score 0-7.

As for “RNA1{[moe](G)[sp].[moe](A)p.[moe](G)p.[moe](T)p.[moe](A)p.d(G)[sp].d(T)[sp].d([m5C])[sp].d(T)[sp].d(A)[sp].d(T)[sp].d(T)[sp].d(G)[sp].d(G)[sp].d(T)[sp].[moe](G)p.[moe](T)p.[moe](T)[sp].[moe]([m5C])}$$$$ (last 3' nucleoside missing)”, the 3 h FOB score came out at 5.5 score 0-7.

In turn, “RNA1{[moe](G)[sp].[moe](G)p.[moe](G)p.[moe](A)p.[moe](G)p.d(G)[sp].d(A)[sp].d(G)[sp].d(T)[sp].d([m5C])[sp].d([m5C])[sp].d([m5C])[sp].d([m5C])[sp].d(A)[sp].d(G)[sp].[moe](A)p.[moe](T)p.[moe](A)[sp].[moe](A)}$$$$ (last 3' nucleoside missing)” displayed a 3 h FOB score of 1.2 score 0-7.

Substance “RNA1{[moe](A)[sp].[moe](A)p.[moe]([m5C])p.[moe](G)p.[moe]([m5C])p.d(A)[sp].d(A)[sp].d(T)[sp].d(G)[sp].d(T)[sp].d(A)[sp].d(T)[sp].d([m5C])[sp].d(A)[sp].d(G)[sp].[moe](G)p.[moe]([m5C])p.[moe](A)[sp].[moe](A)}$$$$ (last 3' nucleoside missing)” showed a 3 h FOB score of 1 score 0-7.

Take “RNA1{[moe](T)[sp].[moe](T)p.[moe](T)p.[moe](G)p.[moe](G)p.d([m5C])[sp].d(T)[sp].d(T)[sp].d(T)[sp].d(A)[sp].d(T)[sp].d(A)[sp].d([m5C])[sp].d(T)[sp].d(T)[sp].[moe](T)p.[moe](A)p.[moe]([m5C])[sp].[moe]([m5C])}$$$$ (last 3' nucleoside missing)”: the 3 h FOB score came to 0 score 0-7.

Consider “RNA1{[moe](T)[sp].[moe](T)p.[moe](G)p.[moe](G)[sp].d(T)[sp].d([m5C])[sp].d(A)[sp].d(T)[sp].d([m5C])[sp].d(T)[sp].d([m5C])[sp].d(G)[sp].[moe](G)p.[moe](G)p.[moe](T)p.[moe](A)[sp].[moe](T)}$$$$ (last 3' nucleoside missing)”, for which the 3 h FOB score was found to be 2.3 score 0-7.

“RNA1{[moe](G)[sp].[moe](G)p.[moe](G)p.[moe](A)p.[moe](A)p.d(G)[sp].d(T)[sp].d([m5C])[sp].d(T)[sp].d(A)[sp].d(G)[sp].d(G)[sp].d(T)[sp].d([m5C])[sp].d(T)[sp].[moe]([m5C])p.[moe](A)p.[moe]([m5C])[sp].[moe](G)}$$$$ (last 3' nucleoside missing)”: the 3 h FOB score stood at 3.2 score 0-7.

For “RNA1{[moe](T)[sp].[moe]([m5C])p.[moe](A)p.[moe]([m5C])p.[moe]([m5C])p.d(A)[sp].d(T)[sp].d(T)[sp].d(T)[sp].d(T)[sp].d(G)[sp].d(A)[sp].d([m5C])[sp].d([m5C])[sp].d(T)[sp].[moe](T)p.[moe]([m5C])p.[moe](T)[sp].[moe](T)}$$$$ (last 3' nucleoside missing)”, the 3 h FOB score came out at 1 score 0-7.

Substance “RNA1{[moe](G)[sp].[moe](G)p.[moe](A)p.[moe]([m5C])p.[moe](A)p.d(G)[sp].d([m5C])[sp].d(T)[sp].d(G)[sp].d(T)[sp].d(G)[sp].d(T)[sp].d(G)[sp].d(G)[sp].d(A)[sp].[moe](G)p.[moe](G)p.[moe](G)[sp].[moe](A)}$$$$ (last 3' nucleoside missing)” gave a 3 h FOB score of 5.5 score 0-7.

Take “RNA1{[moe](G)[sp].[moe](T)p.[moe](G)p.[moe](T)p.[moe](T)p.d(T)[sp].d(T)[sp].d(T)[sp].d([m5C])[sp].d([m5C])[sp].d(A)[sp].d(T)[sp].d(T)[sp].d(T)[sp].d(T)[sp].[moe](T)p.[moe]([m5C])p.[moe](T)[sp].[moe]([m5C])}$$$$ (last 3' nucleoside missing)”: the 3 h FOB score came to 0 score 0-7.

As to “RNA1{[moe](G)[sp].[moe]([m5C])p.[moe](T)p.[moe](G)p.d(A)[sp].d(T)[sp].d([m5C])[sp].d(A)[sp].d([m5C])[sp].d(A)[sp].d(T)[sp].d(T)[sp].d(A)[sp].d([m5C])[sp].[moe]([m5C])p.[moe]([m5C])p.[moe](A)p.[moe](T)[sp].[moe]([m5C])}$$$$ (last 3' nucleoside missing)”, the 3 h FOB score was found to be 0 score 0-7.

“RNA1{[moe](T)[sp].[moe](T)p.[moe](G)p.[moe]([m5C])p.[moe](T)p.d(G)[sp].d(A)[sp].d(T)[sp].d([m5C])[sp].d(A)[sp].d([m5C])[sp].d(A)[sp].d(T)[sp].d(T)[sp].d(A)[sp].[moe]([m5C])p.[moe]([m5C])p.[moe]([m5C])[sp].[moe](A)}$$$$ (last 3' nucleoside missing)” registered a 3 h FOB score of 0 score 0-7.

For “RNA1{[moe](G)[sp].[moe](G)p.[moe](A)p.[moe](T)p.[moe](G)p.d(G)[sp].d(T)[sp].d(T)[sp].d(G)[sp].d(A)[sp].d([m5C])[sp].d([m5C])[sp].d(T)[sp].d([m5C])[sp].d(A)[sp].[moe](A)p.[moe](A)p.[moe](A)[sp].[moe](T)}$$$$ (last 3' nucleoside missing)”, the 3 h FOB score turned out to be 3.8 score 0-7.

“RNA1{[moe](G)[sp].[moe](A)p.[moe](T)p.[moe]([m5C])p.[moe](T)p.d(T)[sp].d(G)[sp].d(G)[sp].d(T)[sp].d(A)[sp].d(A)[sp].d(G)[sp].d(G)[sp].d([m5C])[sp].d(A)[sp].[moe](G)p.[moe]([m5C])p.[moe](T)[sp].[moe]([m5C])}$$$$ (last 3' nucleoside missing)”: the 3 h FOB score turned out to be 6.8 score 0-7.

On to “RNA1{[moe](T)[sp].[moe](G)p.[moe]([m5C])p.[moe](T)[sp].d(T)[sp].d([m5C])[sp].d(A)[sp].d([m5C])[sp].d([m5C])[sp].d(A)[sp].d(T)[sp].d(T)[sp].[moe](T)p.[moe](T)p.[moe](G)p.[moe](A)[sp].[moe]([m5C])}$$$$ (last 3' nucleoside missing)”, for which the 3 h FOB score was 0 score 0-7.

“RNA1{[moe](T)[sp].[moe](G)p.[moe](T)p.[moe](G)p.[moe]([m5C])p.[moe](A)[sp].d(T)[sp].d(A)[sp].d([m5C])[sp].d([m5C])[sp].d([m5C])[sp].d(A)[sp].d(G)[sp].d(G)[sp].[moe](G)p.[moe](T)[sp].[moe](A)}$$$$ (last 3' nucleoside missing)” showed a 3 h FOB score of 1 score 0-7.

For the substance “RNA1{[moe](T)[sp].[moe]([m5C])p.[moe](A)p.[moe](T)p.[moe]([m5C])p.d(T)[sp].d([m5C])[sp].d(G)[sp].d(G)[sp].d(G)[sp].d(T)[sp].d(A)[sp].d(T)[sp].d(A)[sp].d(T)[sp].[moe](A)p.[moe](A)p.[moe](A)[sp].[moe](T)}$$$$ (last 3' nucleoside missing)”, the 3 h FOB score was determined as 3.3 score 0-7.

“RNA1{[moe](T)[sp].[moe](G)p.[moe]([m5C])p.[moe](T)p.[moe]([m5C])p.[moe](A)[sp].d(G)[sp].d(T)[sp].d(T)[sp].d(A)[sp].d(G)[sp].d(G)[sp].d(T)[sp].d(T)[sp].[moe](A)p.[moe](G)[sp].[moe](T)}$$$$ (last 3' nucleoside missing)” registered a 3 h FOB score of 5.7 score 0-7.

As to “RNA1{[moe](T)[sp].[moe](G)p.[moe](A)p.[moe](T)p.[moe]([m5C])p.d(A)[sp].d([m5C])[sp].d(A)[sp].d(T)[sp].d(T)[sp].d(A)[sp].d([m5C])[sp].d([m5C])[sp].d([m5C])[sp].d(A)[sp].[moe](T)p.[moe]([m5C])p.[moe]([m5C])[sp].[moe](G)}$$$$ (last 3' nucleoside missing)”, the 3 h FOB score is 0 score 0-7.
